This is an account of results in US20030228675A1, “ATM related kinase ATX, nucleic acids encoding same and methods of use” (priority 2002, published 2003).

In data set [1] the test system is U2OS cells. The experiment in a line: Clonogenic survival assay of oligonucleotide-transfected cells. The class given is cell-based, human. The settings on record: non-irradiated, 10 days in culture. As for the experimental part: To address concerns related to potential non-specific effects of ATXKI expression on cellular functions, an antisense oligonucleotide-based approach to reduce the level of ATX expression in U2OS cells was developed. The cells were mock transfected, or transfected with sense (S) or antisense (AS) oligonucleotides, and then treated for 24 h with various genotoxic agents. The cells were then trypsinized and replated, and clonogenic survival was analyzed after 10 days in culture. The results obtained with AS-treated cells were strikingly similar to those obtained with the ATXKI-expressing cells (FIGS. 2A-C). While transfection of U2OS cells with the S oligonucleotide reduced the basal level of colony outgrowth by 25%, treatment with the AS oligonucleotide decreased basal clonogenic activity by 75% (FIG. 2C, right panel). […] The reduction in ATX protein caused by AS treatment ranged from 50-90% in over 10 independent trials.
To prepare recombinant HA-tagged ATX and ATM proteins, HEK 293T cells were plated onto 60-mm dishes (9×10^5 cells per dish), and were transfected with 5 μg pcDNA3.1 (empty vector), HA-ATXWT, HA-ATXKI, or HA-ATMWT plasmid DNAS. Transfections were performed with the Fugene 6 transfection reagent (Roche), according to the manufacturer's instructions. For NMD assays (see Example 9, below), U2OS cells were seeded onto 100 mm dishes (1×10^6 cells per dish). […]
U2OS cells were seeded into 60 mm dishes (1×10^5 cells per dish) in complete medium. […] To quantitate the outgrowth of drug-resistant cells, the Coomassie Blue-bound protein was solubilized at 37° C. with 0.1 M NaOH, and the soluble material was analyzed by absorbance spectroscopy at a wavelength of 590 nm. […] Drug-resistant colonies were stained with Coomassie Blue after 10 days in culture, and the samples were analyzed with Image Pro Plus software to quantitate cell density. […]

Data set [2] concerns U2OS cells. As to the kind of experiment: Cell-cycle distribution by flow cytometry. The settings on record: 24 h post-irradiation. Type of data set: cell-based, human. As for the experimental part:
Since p53 plays a central role in activation of the G1 checkpoint, and influences S, G2, and M checkpoints as well (Giaccia and Kastan, Genes & Development 12:2973-2983 (1998); Ko and Prives, supra, 1996), a functional deficiency of ATX might alter the cell-cycle arrest responses to IR and other genotoxic agents. To test this possibility, U2OS cells were pre-treated with S or AS oligonucleotides, exposed to IR, and cell-cycle distributions at 24 h post-irradiation were determined.
The G2 checkpoint inhibitor was added to the culture medium at 8 h prior to harvest for determination of cell-cycle distributions (FIG. 3E, left panel), and immunoblotting for ATX expression (right panel).
(In flow cytometry, cells or beads pass a laser one at a time.)

Data set [3] concerns p53. As to the kind of experiment: Stress-induced p53 Ser-15 phosphorylation and p53 accumulation by immunoblotting. Type of data set: cell-based, human. To be noted: U2OS treated with the drug. As for the experimental part: To prepare recombinant HA-tagged ATX and ATM proteins, HEK 293T cells were plated onto 60-mm dishes (9×10^5 cells per dish), and were transfected with 5 μg pcDNA3.1 (empty vector), HA-ATXWT, HA-ATXKI, or HA-ATMWT plasmid DNAS. Transfections were performed with the Fugene 6 transfection reagent (Roche), according to the manufacturer's instructions. For NMD assays (see Example 9, below), U2OS cells were seeded onto 100 mm dishes (1×10^6 cells per dish). After 20 h, cells were transfected with 1.5 μg of pmCMV-Gl test plasmid, either Norm or 39Ter (Ishigaki et al., 2001); 1.5 μg of phCMV-MUP reference plasmid (Ishigaki et al., Cell 106:607-617 (2001)); and 7 μg of empty plasmid (pcDNA 3.1), plasmids encoding HA-ATMWT, HA-ATMKI, HA-ATXWT or HA-ATXKI. For antisense transfection experiments, U2OS cells were seeded onto 60 mm dishes (1×10^5 cells per dish) in complete medium supplemented with penicillin/streptomycin. After 30 h, cells were either mock transfected or transfected with sense (S) or antisense (AS) phosphorothioate oligonucleotides (Genset Oligos, La Jolla, Calif.). The S oligonucleotide spans ATX nucleotides 210-229 (5′-[…]-3′), and the AS oligonucleotide is complementary to this sequence (5′-[…]-3′). The cells were transfected with oligonucleotides at final concentrations of 8 μg/ml, with Fugene 6:DNA ratio of 1.6:1. Forty-eight hours after transfection, dishes were exposed to IR, UV-B, or 5-FU, and then harvested for immunoblotting, cell-cycle distribution, or cell survival assays. To examine ATX protein levels in oligonucleotide-treated cells, whole cell extracts were resolved by SDS-PAGE and immunoblotted with α-ATX Ab-1. When oligonucleotide-transfected cells were used for NMD assays, U2OS cells were seeded in culture dishes as described above. The cells were transfected using the Fugene reagent, with 1.5 μg of pmCMV-Gl test plasmid, 0.7 μg of phCMV-MUP reference plasmid, and 24 μg of S or AS oligonucleotide.
A major mediator of stress-induced signaling in mammalian cells is the tumor suppressor protein, p53 (Ko and Prives, Genes and Development 10:1054-1072, (1996); Ryan et al., Curr. Opin. Cell Biol. 13:332-337 (2001)). ATX phosphorylates p53 on Ser-15 (FIG. 1C), a site implicated in the regulation of p53 stability and transcriptional activity (Dumaz and Meek, Curr. Opin. Cell Biol. 13:225-231 (1999); Zhang and Xiong, Science 292:1910-1915 (2001)). Therefore, the possibility that these two proteins are functionally linked during cellular stress responses was investigated. U2OS cells were transiently transfected with a HA-ATXWT or HA-ATXKI expression plasmid, together with a GFP-encoding plasmid to allow for FACS-based enrichment of the transfected cells. The GFP+ cells were then examined for IR-induced stabilization of p53, as well as for specific phosphorylation of this protein on Ser-15. […] In contrast, overexpression of ATXWT enhanced both of these responses in cells exposed to IR.
The recognition of UV light-induced DNA damage occurs primarily during S phase, when pyrimidine dimers and other bulky lesions interfere with replication fork progression (Friedberg, DNA Repair and Mutagenesis (Washington, D.C., ASM Press) (1995); Lindahl and Wood, Cell 103:1121-1131 (1999)).
In order to further define the potential linkage between DNA replicational stress and ATX, the response of AS-treated cells to 5-fluorouracil (5-FU), an S-phase specific cytotoxic agent was examined (Danenberg et al., Seminars in Oncology 26:621-631 (1999); Grem, Investigational New Drugs 18:299-313 (2000)).
Changes in phosphorylation at Ser-15 are typically accompanied by alterations in the expression of the p53 protein, which complicates the interpretation of results obtained by immunoblotting of whole cell extracts with phospho-Ser-15-specific antibodies. […]

Data set [4] concerns the target T1, ATX (Homo sapiens, UniProt Q96Q15). The experiment in a line: Immune complex kinase assay, immunoprecipitated HA-ATXWT pretreated with drug, GST-p53 1-70 phosphorylation. The class given is biochemical. Further details: was used to isolate a full-length cDNA encoding a novel member of the PIKK family, termed ATX; made in house. To be noted: pretreatment of immunoprecipitated HA-ATXWT; GST-p53 1-70 substrate; read-out: drug concentration required for 50% inhibition (IC50) of ATX activity in vitro. As for the experimental part:
With the exception of the TOR proteins, the PIKK family members that bear functional catalytic domains phosphorylate substrates bearing the Ser/Thr-Gln motif (Tibbetts and Abraham, supra, 2000). […] Detergent extracts from the transfected cell populations were immunoprecipitated with α-HA antibody, and protein kinase assays were performed in buffer containing Mn2+, [γ-32P]ATP, and a GST fusion protein containing the first 70 amino acids of p53 (GST-p531-70) as the substrate (FIG. 1C). The GST-p531-70 protein was previously identified as a substrate for ATM and ATR in immune complex kinase assays (Tibbetts et al., Genes and Development 13:152-157 (1999)). […] Based on the ratios of 32P incorporation into substrate to levels of HA-tagged protein kinase, it can be estimated that the specific kinase activity of ATXWT was approximately 3.5-fold higher than that of ATMWT. As observed with ATM as the test kinase (Banin et al., Science 281:1674-1677 (1998); Canman et al., Science 281:1677-1679 (1998); Tibbetts et al., supra, 1999), phosphorylation of GST-p531-70 by ATXWT was nearly abolished by substitution of the Ser-15 residue in p53 with Ala (FIG. 1C, right panel). […] In contrast to the amino-terminal fragment, of p53, the PHAS-I/4E-BP1 protein, which is the prototypical substrate for mTOR, was poorly phosphorylated by HA-ATXWT in immune complex kinase assays (data not shown). […]

Data set [5] deals with T1, ATX. The experiment in a line: ATX kinase activity after drug treatment of intact U2OS cells, immunoprecipitation of endogenous ATX. The class given is cell-based. Further details: immunoprecipitation of endogenous ATX with α-ATX Ab-2; endogenous in cells; host or cells: U2OS osteosarcoma cells. To be noted: U2OS cells pretreated for 30 min, endogenous ATX immunoprecipitated with α-ATX Ab-2. An excerpt: The protein kinase activities of the mammalian PIKKs characteristically display a strong dependence on Mn2+ as a cofactor for the phosphotransferase reaction, and variable sensitivity to inhibition by wortmannin (Abraham, Genes and Development 15:2177-2196 (2001)). In our studies, the protein kinase activity of ATX was also dependent on the addition of Mn2+ the kinase reaction buffer (data not shown). […] Wortmannin is an irreversible inhibitor of PIKKs (Walker et al., Molecular Cells 6:909-919 (2000)) and can be used to assess the potency of this drug as an ATX inhibitor in intact cells. To this end, U2OS osteosarcoma cells were pretreated for 30 min with the indicated concentrations of wortmannin, followed by the preparation of cellular extracts for immunoprecipitation of endogenous ATX with α-ATX Ab-2. […]
For subcellular fractionations, U2OS cells were resuspended in cold homogenization buffer (25 mM Hepes, pH 7.4, 250 mM sucrose, 1 mM EGTA, 5 mM MgCl2, 50 mM NaF, 1 mM DTT, plus protease inhibitors) and Dounce homogenized on ice with 40 strokes in a Tefloncoated homogenizer. […] After separation by SDS-PAGE, the proteins were detected by autoradiography (for kinase reaction products) or by immunoblotting. Proteins immunoblotted with rabbit and mouse antibodies were detected with protein A-horseradish peroxidase (HRP) (Amersham), and sheep anti-mouse IgG-HRP (Amersham), respectively. […]
Target sequence in this assay (Q96Q15 whole entry, the tested form may be a part): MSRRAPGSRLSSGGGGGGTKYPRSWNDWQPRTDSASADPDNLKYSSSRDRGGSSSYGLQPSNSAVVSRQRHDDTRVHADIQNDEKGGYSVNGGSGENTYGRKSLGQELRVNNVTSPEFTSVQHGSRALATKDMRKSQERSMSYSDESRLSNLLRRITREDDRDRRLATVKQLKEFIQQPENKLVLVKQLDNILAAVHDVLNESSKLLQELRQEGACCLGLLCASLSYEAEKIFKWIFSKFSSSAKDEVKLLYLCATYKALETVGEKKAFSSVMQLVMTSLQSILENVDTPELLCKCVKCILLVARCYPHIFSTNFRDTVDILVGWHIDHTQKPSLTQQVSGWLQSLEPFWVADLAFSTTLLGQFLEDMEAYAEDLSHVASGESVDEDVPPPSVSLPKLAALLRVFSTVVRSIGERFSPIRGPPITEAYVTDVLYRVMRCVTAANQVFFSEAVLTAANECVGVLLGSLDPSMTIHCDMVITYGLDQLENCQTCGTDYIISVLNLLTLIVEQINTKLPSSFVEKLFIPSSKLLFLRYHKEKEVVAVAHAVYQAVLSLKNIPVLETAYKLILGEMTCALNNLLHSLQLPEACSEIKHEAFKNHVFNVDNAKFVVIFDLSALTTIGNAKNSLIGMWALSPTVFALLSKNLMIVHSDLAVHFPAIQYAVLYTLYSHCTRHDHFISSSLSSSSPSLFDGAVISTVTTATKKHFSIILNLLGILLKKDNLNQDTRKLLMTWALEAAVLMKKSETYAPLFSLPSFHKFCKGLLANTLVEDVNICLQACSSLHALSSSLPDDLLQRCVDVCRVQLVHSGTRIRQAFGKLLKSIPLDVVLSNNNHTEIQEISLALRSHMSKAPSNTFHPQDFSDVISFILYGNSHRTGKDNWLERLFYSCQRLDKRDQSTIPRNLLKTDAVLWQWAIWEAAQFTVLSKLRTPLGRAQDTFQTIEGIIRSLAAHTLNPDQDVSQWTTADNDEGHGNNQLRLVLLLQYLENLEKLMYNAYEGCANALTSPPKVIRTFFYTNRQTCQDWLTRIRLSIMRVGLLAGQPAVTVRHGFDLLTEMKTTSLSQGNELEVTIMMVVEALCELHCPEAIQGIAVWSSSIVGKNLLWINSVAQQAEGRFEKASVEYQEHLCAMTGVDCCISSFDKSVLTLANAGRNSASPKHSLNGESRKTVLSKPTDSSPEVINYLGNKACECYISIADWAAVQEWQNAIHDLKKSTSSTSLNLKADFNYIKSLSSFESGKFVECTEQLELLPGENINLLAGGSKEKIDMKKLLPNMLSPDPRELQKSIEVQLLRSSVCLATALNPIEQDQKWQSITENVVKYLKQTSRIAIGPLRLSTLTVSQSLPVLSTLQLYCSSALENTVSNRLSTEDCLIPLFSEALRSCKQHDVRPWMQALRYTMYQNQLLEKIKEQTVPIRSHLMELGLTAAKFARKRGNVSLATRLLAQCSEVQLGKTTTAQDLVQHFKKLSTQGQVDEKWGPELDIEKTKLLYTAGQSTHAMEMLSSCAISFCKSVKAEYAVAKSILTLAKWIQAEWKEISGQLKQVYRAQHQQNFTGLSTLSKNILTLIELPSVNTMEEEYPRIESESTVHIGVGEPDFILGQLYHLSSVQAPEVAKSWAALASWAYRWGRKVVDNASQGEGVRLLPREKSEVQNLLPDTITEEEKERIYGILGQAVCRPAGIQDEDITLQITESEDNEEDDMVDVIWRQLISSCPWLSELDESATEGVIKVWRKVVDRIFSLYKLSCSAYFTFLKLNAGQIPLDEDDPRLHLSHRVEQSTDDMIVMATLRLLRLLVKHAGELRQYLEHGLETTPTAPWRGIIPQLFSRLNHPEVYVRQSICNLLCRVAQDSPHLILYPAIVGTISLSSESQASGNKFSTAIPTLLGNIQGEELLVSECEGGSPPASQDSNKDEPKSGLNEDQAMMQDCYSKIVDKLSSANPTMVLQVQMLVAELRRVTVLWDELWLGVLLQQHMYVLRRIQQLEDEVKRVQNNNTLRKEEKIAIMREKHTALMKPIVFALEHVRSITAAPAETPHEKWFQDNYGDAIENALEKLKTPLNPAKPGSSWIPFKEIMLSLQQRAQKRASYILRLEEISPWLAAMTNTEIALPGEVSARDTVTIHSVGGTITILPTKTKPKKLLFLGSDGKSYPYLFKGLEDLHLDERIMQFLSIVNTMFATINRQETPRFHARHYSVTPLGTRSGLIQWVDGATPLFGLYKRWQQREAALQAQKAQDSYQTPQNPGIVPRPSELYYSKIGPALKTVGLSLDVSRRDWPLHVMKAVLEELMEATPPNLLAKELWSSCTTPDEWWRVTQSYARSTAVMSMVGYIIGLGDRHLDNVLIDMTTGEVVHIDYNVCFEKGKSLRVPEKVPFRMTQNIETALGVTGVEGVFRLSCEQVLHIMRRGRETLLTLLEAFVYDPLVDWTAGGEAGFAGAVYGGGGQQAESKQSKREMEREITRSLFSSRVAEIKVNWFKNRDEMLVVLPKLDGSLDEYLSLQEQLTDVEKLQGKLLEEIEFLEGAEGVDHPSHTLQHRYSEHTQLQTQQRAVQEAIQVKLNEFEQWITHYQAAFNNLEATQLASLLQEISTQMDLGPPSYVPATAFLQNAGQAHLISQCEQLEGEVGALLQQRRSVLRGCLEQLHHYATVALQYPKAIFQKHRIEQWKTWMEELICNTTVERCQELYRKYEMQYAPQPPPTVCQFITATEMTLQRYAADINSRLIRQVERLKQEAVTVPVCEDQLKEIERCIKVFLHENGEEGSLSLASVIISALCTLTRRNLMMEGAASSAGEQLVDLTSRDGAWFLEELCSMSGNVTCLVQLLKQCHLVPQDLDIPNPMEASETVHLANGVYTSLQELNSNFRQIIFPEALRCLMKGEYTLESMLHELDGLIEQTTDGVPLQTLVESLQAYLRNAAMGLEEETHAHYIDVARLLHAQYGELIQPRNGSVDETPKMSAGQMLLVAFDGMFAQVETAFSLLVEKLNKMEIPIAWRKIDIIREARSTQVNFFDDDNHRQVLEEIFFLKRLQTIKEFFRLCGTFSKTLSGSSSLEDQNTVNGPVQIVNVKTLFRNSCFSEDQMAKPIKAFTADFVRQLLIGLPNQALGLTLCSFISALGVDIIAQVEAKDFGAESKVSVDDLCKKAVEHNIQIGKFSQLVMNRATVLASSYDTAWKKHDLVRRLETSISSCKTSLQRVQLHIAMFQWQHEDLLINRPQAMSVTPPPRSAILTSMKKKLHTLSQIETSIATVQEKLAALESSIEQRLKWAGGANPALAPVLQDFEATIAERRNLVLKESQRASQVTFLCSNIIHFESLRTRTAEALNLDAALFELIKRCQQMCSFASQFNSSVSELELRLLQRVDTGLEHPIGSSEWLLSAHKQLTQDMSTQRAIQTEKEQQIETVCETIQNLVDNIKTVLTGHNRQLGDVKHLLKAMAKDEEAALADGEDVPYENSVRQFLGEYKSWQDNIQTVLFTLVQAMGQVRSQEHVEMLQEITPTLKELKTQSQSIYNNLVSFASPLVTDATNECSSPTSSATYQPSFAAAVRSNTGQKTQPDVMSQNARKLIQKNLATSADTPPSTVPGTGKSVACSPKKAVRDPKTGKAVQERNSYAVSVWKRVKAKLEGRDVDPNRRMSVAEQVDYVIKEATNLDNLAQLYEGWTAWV

Regarding “5′-GAGACAGGAGGGAGCTTGCT-3′ (all phosphorothioate, sugars by position and methylation of C not given here) [S oligonucleotide, reference compound]”, the “decrease of basal level of colony outgrowth (basal clonogenic activity)” value in data set [1] is 25%. Besides, the “cell-cycle distribution after IR exposure” value in data set [2] was “accumulated in both G1 and G2/M phases and were cleared out of S phase”.

For `O=c1[nH]cc(F)c(=O)[nH]1` [5-FU, 5-fluorouracil, reference compound], in data set [3], the “Ser-15 phosphorylation of p53” value is “not accompanied by an increase in Ser-15 phosphorylation” and the p53 expression entry was “increased p53 expression to levels similar to those observed in UV-irradiated cells”.

Consider `COC[C@H]1OC(=O)c2coc3c2[C@@]1(C)C1=C(C3=O)[C@@H]2CCC(=O)[C@@]2(C)C[C@H]1OC(C)=O` [wortmannin], for which the IC50 was 10 to 100 nM in data set [4] and 1000 to 3000 nM in data set [5].
